{
  "source": "patent US6534035B1",
  "about": "“Methods of inhibiting clot formation” (President and Fellows of Harvard College, priority 1998, dated 2003)",
  "key": {"FXIIIa": {"molecular_target": "T1, FXIIIa (Homo sapiens, UniProt P00488)", "T1 construct": "purchased American Diagnostica", "T1 sequence (P00488 39-732 limits assumed)": "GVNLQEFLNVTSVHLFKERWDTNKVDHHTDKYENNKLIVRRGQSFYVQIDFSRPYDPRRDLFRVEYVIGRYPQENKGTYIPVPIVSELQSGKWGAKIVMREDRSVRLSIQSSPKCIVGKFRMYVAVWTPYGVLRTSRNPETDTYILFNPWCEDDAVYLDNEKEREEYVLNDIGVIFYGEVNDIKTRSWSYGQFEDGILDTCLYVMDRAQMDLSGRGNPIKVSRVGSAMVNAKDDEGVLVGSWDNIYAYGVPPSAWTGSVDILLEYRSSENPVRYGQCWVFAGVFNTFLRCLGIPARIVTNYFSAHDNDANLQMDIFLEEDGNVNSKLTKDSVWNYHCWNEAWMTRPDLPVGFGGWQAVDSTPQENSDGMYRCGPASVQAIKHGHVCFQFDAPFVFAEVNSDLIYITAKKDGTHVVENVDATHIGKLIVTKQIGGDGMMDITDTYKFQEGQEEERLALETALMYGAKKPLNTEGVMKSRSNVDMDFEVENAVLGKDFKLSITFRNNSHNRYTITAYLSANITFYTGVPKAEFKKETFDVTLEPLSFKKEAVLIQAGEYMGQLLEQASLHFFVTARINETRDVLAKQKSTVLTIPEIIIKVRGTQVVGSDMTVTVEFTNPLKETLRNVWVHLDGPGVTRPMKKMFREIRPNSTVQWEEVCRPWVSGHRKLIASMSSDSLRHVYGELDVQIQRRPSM", "assay": "FXIIIa catalytic half-life: crosslinking of substrates into fibrin clots of various ages", "type": "biochemical", "details": "substrate added to 2 or 4 hour old clots", "protocol": "Experiments were performed to determine how long FXIIIa in clots could crosslink various substrates such as human ^125I -α2AP, α2AP13-24 (SEQ ID NO:2), and 5-(biotinamido)pentylamine, into fibrin. In a typical experiment, clots were prepared (50 μl final volume) in duplicate by combining fibrinogen (2 mg/ml final), CaCl2 (2 mM final), buffer (Tris-buffered saline pH 7.4) and thrombin (1 U/ml) and incubating at 37° C. Synchronous with the addition of thrombin, or up to 240 minutes afterwards, the FXIIIa substrates 5-(biotinamido)pentylamine (0.5 mM final), ^125I -α2AP (70 μg/ml final), and α2AP13-24 (0 to 1 mM final) were mixed and added to the clot. In one set of control samples, FXIIIa was inhibited with iodoacetamide (10 mg/ml) prior to the addition of substrate; to another set, no substrate was added. After 2 hours of incubation at 37° C., iodoacetamide (10 mg/ml) was added to stop the reaction. The tubes were then centrifuged at 14,000 rpm for 2 minutes, washed and compressed in 1 ml saline to remove unbound proteins, and centrifuged again at 14,000 rpm for 2 minutes. After removal of the supernatant, the clots were solubilized in 100 μL of 9M urea, pH 9.0 at 37° C. for 60 minutes. Then 100 μl of SDS reducing sample buffer was added and the clots were placed at 85° C. for 30 minutes until fully solubilized. The samples were examined by SDS-PAGE. Crosslinked ^125I-α2AP was detected and quantitated by phosphorimaging. Samples containing crosslinked α2AP13-24 and pentylamine substrates were electroblotted to PVDF membranes and detected by ^125I-streptavidin followed by phosphorimaging or by streptavidin-peroxidase followed by the developing agents 5-bromo-4-chloro-3-indolyl phosphate-nitro blue tetrazolium using methods known in the art. In experiments examining the effect of specific amino acid residues on the crosslinking of the α2AP13-24 peptide (SEQ ID NO:2) to fibrin, crosslinking was detected by immunoblotting with an anti-peptide antibody directed against this epitope followed by ^125I-protein A and phosphorimaging. […]"}, "[1]": {"molecular_target": "T2, guinea pig tissue transglutaminase (Cavia cutleri, UniProt P08587)", "T2 sequence (P08587 1-690)": "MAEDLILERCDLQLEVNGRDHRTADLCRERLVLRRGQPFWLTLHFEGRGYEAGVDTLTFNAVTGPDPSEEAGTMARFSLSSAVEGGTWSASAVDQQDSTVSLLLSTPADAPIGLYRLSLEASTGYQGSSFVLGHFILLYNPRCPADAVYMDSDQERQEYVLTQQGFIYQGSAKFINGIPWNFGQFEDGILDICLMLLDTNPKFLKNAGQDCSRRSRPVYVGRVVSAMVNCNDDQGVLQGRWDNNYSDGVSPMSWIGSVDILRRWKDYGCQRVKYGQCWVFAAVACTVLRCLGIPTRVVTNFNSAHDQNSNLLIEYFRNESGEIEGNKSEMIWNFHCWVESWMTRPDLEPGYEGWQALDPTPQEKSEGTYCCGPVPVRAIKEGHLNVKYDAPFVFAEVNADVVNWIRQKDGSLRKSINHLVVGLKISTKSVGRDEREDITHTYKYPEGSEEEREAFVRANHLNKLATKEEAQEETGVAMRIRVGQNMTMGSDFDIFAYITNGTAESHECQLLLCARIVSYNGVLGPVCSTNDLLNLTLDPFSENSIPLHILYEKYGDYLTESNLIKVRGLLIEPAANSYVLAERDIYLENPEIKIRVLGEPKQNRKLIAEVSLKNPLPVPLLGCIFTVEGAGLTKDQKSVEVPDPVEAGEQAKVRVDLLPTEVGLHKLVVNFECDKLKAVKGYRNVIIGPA", "assay": "Crosslinking of α2AP13-24 into fibrin by tissue transglutaminase", "type": "biochemical", "details": "purified tissue transglutaminase (100 nM) added to FXIIIa-deficient fibrinogen", "protocol": "Fibrin clots (50 μl) were prepared in duplicate by mixing FXIII-free fibrinogen (2 mg/ml final), α2AP13-24 (SEQ ID NO:2; 0.5 mM final), CaCl2 (2 mM final), human plasma FXIII (100 nM/L final) and guinea pig tissue transglutaminase (100 nM/L final) and thrombin (1 U/ml final) and incubating at 37° C. for 2 hours. The crosslinking of α2AP13-24 was detected as described above."}},
  "note": "Peptide text beside a SMILES is read from it. * marks the point of attachment. Biotin = O=C1N[C@H]2[C@H](CS[C@H]2CCCCC(=O)*)N1",
  "data": [
    {"smiles": "CC(C)C[C@H](NC(=O)[C@H](CC(C)C)NC(=O)[C@@H](NC(=O)[C@H](CC(C)C)NC(=O)[C@@H]1CCCN1C(=O)[C@H](CO)NC(=O)[C@@H](NC(=O)[C@H](CCC(N)=O)NC(=O)[C@H](CCC(=O)O)NC(=O)[C@H](CCC(N)=O)NC(=O)[C@@H](N)CC(N)=O)C(C)C)[C@@H](C)O)C(=O)N[C@@H](CCCCNC(=O)CCCC[C@@H]1SC[C@@H]2NC(=O)N[C@@H]21)C(=O)O", "note": "[α2AP13-24, NQEQVSPLTLLK] (H-NQEQVSPLTLLK(Biotin)-OH)", "values": [
      {"measurement": "residual FXIIIa crosslinking of substrate", "setting": "FXIIIa", "result": "little residual FXIIIa crosslinking"},
      {"measurement": "crosslinking of peptide to fibrin", "setting": "[1]", "result": "slight increase in crosslinking"}
    ]}
  ]
}
